Reference: US20010016590A1, “Use of hydroxymatairesinol for prevention of cancers, non-cancer, hormone dependent diseases and cardiovascular diseases by hydroxymatairesinol, and a pharmaceutical preparation, food additive and food product comprising hydroxymatairesinol” (priority 1999, published 2001)
Values belong to the compound of their own block, whether it stands above or below them.

Tests used:
[1] = tested on: hypoandrogenic Noble strain male rats; assay: Antiestrogenic activity in hypoandrogenic (neonatally estrogenized) adult male rats; type: in vivo, rat; settings: hypoandrogenic animals
Protocol: (§1) Estrogenic (anfiandrogenic) and antiestrogenic effects of HMR were studied in intact and hypoandrogenic Noble strain male rats (age 6-9 month), correspondingly. The chronic hypoandrogenic state with both structural and functional changes in the male reproductive tract was induced by neonatal estrogenization (diethylstilbestrol, 10.0 μg/kg body weight in rape oil s.c. on postnatal days 1-5). These changes are known to be partly reversible by aromatase inhibitor treatment consisting daily dose of MPV-2213 ad 10-30 mg/kg body weight (Streng et al. unpublished observations).
(§2) Twelve of both intact and hypoandrogenic animals were cavaged in daily dosage of HMR 50 mg/kg body weight in rape oil. Another twelve animals from both animal models were cavaged with rape oil only as a placebo treatment. After four-week treatment the animals were sacrificed. The weights of testis and accessory sex glands (ventral prostate, seminal vesicles and coagulating gland) were measured. Serum and testis testosterone and pituitary and serum luteinizing hormone (LH) levels were measured by immunoassays (Haavisto et al. 1993).

[2] = tested on: intact Noble strain male rats; assay: Estrogenic (antiandrogenic) activity in intact adult male rats; type: in vivo, rat
Protocol: as §1, §2

[3] = tested on: DMBA-induced mammary gland tumors; assay: Antitumor activity in rat DMBA-induced mammary cancer model; type: in vivo
Protocol: Antitumor activity of HMR in rat mammary cancer was studied as described earlier ([…] et al. 1986). Fifty-day-old female Sprague-Dawley rats were given 12.0 mg DMBA (dimethylbentz[a]anthracene) by […]. After approximately 6 weeks palpable tumors could be detected, whereafter the width (w) and the length (1) of the tumors were measured once a week to determine the tumor volumes according to a formula V=(πw^21)/12. The rats were also weighed once a week. The rats were allocated in 3 different groups so that the total number of tumors in the beginning of the experiment was similar in each group: (1) Control group 8 animals, (2) HMR 3.0 mg/kg 7 animals, and (3) HMR 15.0 mg/kg 7 animals, one of which had to be killed before the end of the experiment. HMR was given per os starting 9 weeks after the DMBA-induction, i.e. 3 weeks after palpable tumors appeared, and was given daily for 7.5 weeks. At the end of the experiment the tumors were classified in groups according to their growth pattern: 1. Growing tumors (PD=progressive disease); 2. Non-growing, stabilized tumors (SD=stabilized disease, no change in tumor volume or regression less than 75%; 3. Regressing tumors (PR=partial response, regression of tumor volume more than 75%); 4. Disappeared tumors (CR=complete response, no palpable tumor).

aromatase = biological target: T1, aromatase (Homo sapiens, UniProt P11511); assay: Aromatase inhibiting capacity in JEG-3 cells; type: cell-based; settings: FIG. 1, enterolactone within 1.0 to 10.0 μM
T1 construct: 800 μl cell suspension (1 million cells); endogenous in cells; host or cells: JEG-3 human choriocarcinoma cells
T1 sequence (P11511 1-503): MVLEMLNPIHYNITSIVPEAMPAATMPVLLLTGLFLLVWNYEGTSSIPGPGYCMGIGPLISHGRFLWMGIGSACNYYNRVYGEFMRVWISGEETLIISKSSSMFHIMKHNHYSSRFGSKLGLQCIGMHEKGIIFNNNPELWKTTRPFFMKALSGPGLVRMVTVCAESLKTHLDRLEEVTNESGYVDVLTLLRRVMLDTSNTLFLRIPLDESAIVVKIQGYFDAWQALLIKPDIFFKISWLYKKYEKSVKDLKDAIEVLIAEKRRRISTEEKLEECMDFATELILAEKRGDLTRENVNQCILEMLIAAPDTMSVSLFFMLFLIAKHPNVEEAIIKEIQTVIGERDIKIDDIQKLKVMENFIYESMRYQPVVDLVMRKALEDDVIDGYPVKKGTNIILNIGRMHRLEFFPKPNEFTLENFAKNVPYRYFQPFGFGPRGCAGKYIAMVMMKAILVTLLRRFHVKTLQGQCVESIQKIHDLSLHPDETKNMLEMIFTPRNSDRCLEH
Protocol: The effects of HMR and structurally related lignans (enterolactone, enterodiol and 7-hydroxyenterolactone) were studied on formation of ^3H-17β-estradiol from ^3H-andostenedione in JEG-3 cells, human choriocarcinoma cell line. […] Cells were maintained in DMEM containing 10% fetal calf serum (FCS). The incubation mixture contained 50 μl ^3H-androst-4-ene, 3,17-dione (0.5 nM), 50 μl unlabelled androstenedione (0.5 nM), 100 μl test compounds (10 mM) and 800 μl cell suspension (1 million cells). After the incubation for 4 h, unlabelled carriers (androstenedione, testosterone, 17β-estradiol and estrone) were added. The steroids were extracted twice with 3.0 ml dichloromethane. […] The column system consisted of a guard column followed by a C18 150×3.9 mm ID analytical column (Technopak 10 C18 HPLC Technology; Wellington House, Cheshire, UK). The mobile phase was acetonitrile /water (35/65) and the flow rate was 1.2 ml/min. For in-line detection of the radioactive metabolites, the eluent of the HPCL column was continuously mixed with liquid scintillant and then monitored with in-line radioactivity detector.

[4] = tested on: uterine growth of immature rats; assay: Immature rat uterotropic test; type: in vivo; settings: 7 days treatment, FIG. 3
Protocol: The estrogenicity HMR was evaluated by the uterotropic assay in immature rats which was performed as described earlier (Jordan et al. 1977), with the exception of treatment time which was 7 days instead of 3 days in the reference study. The treatment time was longer because of the expected weak estrogenicity of the test compound. The treatment of immature rats with an aromatase inhibitor (MPV-2213ad), which prevents biosynthesis of estradiol, was used as a methodological control for non-estrogen-stimulated uterus.

MCF-7 cells = assay: Estrogenic and antiestrogenic activity in MCF-7 cell proliferation assay; type: cell-based, human; settings: FIG. 2
Protocol: The MCF-7 cell line (human breast cancer cells) stock cultures were grown in phenol red free RPMI medium supplemented with 5 % FCS, 100 U/ml penicillin and 100 μg/ml streptomycin, 10 μg/ml insulin and 1 nM 17μ-estradiol in T-75 cell culture bottles. The medium was replaced with fresh ones three times per week. The stock cultures were harvested by trypsinization and suspended in 10 ml phenol red free versene solution and centrifuged for 5 min 800 rpm. The cell pellet was carefully resuspended into RPMI medium supplemented with 5% dextran charcoal stripped FCS (dcFCS) and seeded on 6 well plates 50 000 cells/ 3.0 ml medium/ well. On the second day of culture the medium was changed and test compounds were added. To test the estrogenicity of the lignan compounds, they were diluted in ethanol and added to cell cultures in final concentration of […]. In each proliferation assay 1.0 nM 1 7β-estradiol solution in ethanol was used as a positive control for estrogenic response. Equal amounts of ethanol were added to control wells. To test the antiestrogenicity both 17β-estradiol and lignan solutions were added to cell cultures. The cells were cultured for 5 to 7 days in the presence of test compounds, and the medium was changed every second day. Cell proliferation was quantified by counting the released nuclei with Coulter counter.

uterine weight = settings: feeding during pregnancy and lactation to rats; not evident at later stages; Tou et al. 1998; cited from earlier work
[5] = tested on: chemically induced aberrant crypts in rat colon; settings: Serraino and Thompson 1992, Jenab and Thompson 1996; cited from earlier work
[6] = tested on: antiestrogen-sensitive DMBA-induced breast cancer; settings: supplementation of a high-fat diet; flaxseed flour 5% or 10%; Serraino and Thompson; Thompson et al.; cited from earlier work
[7] = intact animals, 50 mg/kg HMR, four week exposure, mean

Inhibition of 3H-17β-estradiol formation from 3H-androstenedione (aromatization) (aromatase): no inhibitory effects
Compound: COc1cc(CC2C(=O)OCC2C(O)c2ccc(O)c(OC)c2)ccc1O (stereo not shown) [HMR, hydroxymatairesinol]
Pituitary LH ([1]; 50 mg/kg HMR, four week exposure, mean): 7.53 µg/pit | Changes in testosterone or LH concentrations vs placebo ([1]; 4-week treatment): no significant changes | Changes in the weights of accessory sex glands and testis vs placebo ([1]; 4-week treatment): no significant changes | Changes in the weights of accessory sex glands and testis vs placebo ([2]; control (intact) animals, 4-week treatment): no significant changes | Pituitary LH [2, 7]: 6.84 µg/pit | Serum LH [2, 7]: 1.09 ng/mL | Serum testosterone [2, 7]: 2.77 ng/mL | Changes in testosterone or LH concentrations vs placebo ([2]; intact animals, 4-week treatment): no significant changes | Dose-dependency of antitumor action ([3]; 3.0 vs 15.0 mg/kg): no clear dose-dependency | Antitumor effect (growing PD versus SD, PR, CR tumors) ([3]; HMR 3.0 and 15.0 mg/kg per os daily for 7.5 weeks, FIG. 4): statistically very significant | Estrogenic effect on the uterine weight gain [4]: no significant estrogenic effect | Estrogenic or antiestrogenic activity in MCF-7 cell proliferation (MCF-7 cells): very weak, not statistically significant

Inhibition of 3H-17β-estradiol formation from 3H-androstenedione (aromatization) (aromatase): no inhibitory effects
Compound: O=C1OC[C@H](Cc2cccc(O)c2)[C@H]1[C@@H](O)c1cccc(O)c1 [7-hydroxyenterolactone]

Compound: O=C1OCC(Cc2cccc(O)c2)C1Cc1cccc(O)c1 (stereo not shown) [enterolactone, 2,3-bis-(3’-hydroxybenzyl)-butyrolactone]
Inhibition of 3H-17β-estradiol formation from 3H-androstenedione (aromatization) (aromatase): dose-dependent inhibition

Compound: OCC(Cc1cccc(O)c1)C(CO)Cc1cccc(O)c1 (stereo not shown) [enterodiol, 2,3-bis-(3’-hydroxybenzyl)-butane-1,4-diol]
Inhibition of 3H-17β-estradiol formation from 3H-androstenedione (aromatization) (aromatase): noninhibitory

Compound: secoisolariciresinol-diglycoside [SDG]
Uterine weight (estrogen-like activity) (uterine weight): increased the uterine weight at weaning | Formation of chemically induced aberrant crypts [5]: inhibited | Development of DMBA-induced breast cancer [6]: prevented the development
